Results reported in PubChem BioAssay (NCI).
Several values for one entry are separate records, joined by “and”; a condition that tells them apart may be missing. Equal entries are not always repeated.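 48-hour exposure; five concentrations; linearly interpolated endpoints. The concentration for 50% growth inhibition is given as GI50. At the TGI there is no net growth.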

Key:
Experiment in all cases: growth of human tumour cells (NCI), 48 h
[1] = tested on: SN12C renal
[2] = tested on: HL-60(TB) leukemia
[3] = tested on: ACHN renal
[4] = tested on: CCRF-CEM leukemia
[5] = tested on: OVCAR-3 ovarian
[6] = tested on: EKVX NSCLC
[7] = tested on: NCI-H460 lung
[8] = tested on: SF-539 CNS
[9] = tested on: MDA-MB-435
[10] = tested on: NCI/ADR-RES ovarian

Row | Compound | TGI [1] | TGI [2] | TGI [3] | TGI [4] | TGI [5] | TGI [6] | TGI [7] | TGI [8] | TGI [9] [µM] | GI50 [1] | GI50 [2] | GI50 [3] [µM] | GI50 [6] [µM] | GI50 [7] [µM] | TGI [10] [µM] | GI50 [10] [µM] | GI50 [4] [µM] | GI50 [5] | GI50 [8] [µM] | GI50 [9] [µM]
1 | CC(/C=C/C(=O)c1sc(C(N)=S)nc1C)=C\c1ccccc1 | > 100 µM | > 100 µM | > 100 µM | > 100 µM | > 100 µM | > 100 µM | > 100 µM | > 100 µM |  |  |  |  |  |  |  |  |  |  |  | 
2 | Cc1ccc2oc(=O)c3c(O)c4cccc(OC5OC(C)C6O[C@@H](c7ccccc7)OC6C5OC5OC(C)C(O)C(O)C5O)c4c4oc(=O)c1c2c34 (some centres not stated) | 1.76 µM and 4.73 µM | 0.7 µM and 0.361 µM | 1.14 µM and 0.439 µM | 0.365 µM and 0.363 µM | 3.96 µM | 4.09 µM and 2.55 µM | 1.03 µM and 0.545 µM | 1.34 µM and 1.39 µM | 1.9 | 0.251 µM | 0.0418 µM | 0.0559 | 0.519 | 0.00467 |  |  |  |  |  | 
3 | CC1=NN(c2ccccc2)C(=O)C12[C@H](c1ccccc1)C2(C#N)C#N (some centres not stated) | 14.3 µM | 7.81 µM | 21.5 µM | 2.78 µM | 19.5 µM | 33.6 µM | 41.5 µM | 27.7 µM |  |  |  |  |  |  |  |  |  |  |  | 
4 | CN1CCN=C1c1nnn(-c2ccc([N+](=O)[O-])cc2)c1-c1ccccc1 | > 100 µM | 61.4 µM | > 100 µM | 59 µM | > 100 µM | > 100 µM | > 100 µM | > 100 µM |  |  |  |  |  |  |  |  |  |  |  | 
5 | Cc1ccccc1-n1c(=S)[nH]c2c(sc(=O)n2-c2ccccc2C)c1=O | > 100 µM | > 100 µM | > 100 µM | > 100 µM | > 100 µM | > 100 µM | > 100 µM | > 100 µM |  |  |  |  |  |  |  |  |  |  |  | 
6 | COc1ccc(NC(=O)CC(=O)N/N=C(\C)c2cc3ccccc3oc2=O)cc1 | > 100 µM | > 100 µM | > 100 µM | > 100 µM | > 100 µM | > 100 µM | > 100 µM | > 100 µM |  |  |  |  |  |  |  |  |  |  |  | 
7 | C=C(C)[C@@H]1CCc2c(O)c(O)c(=O)cc(C)c2C1 | > 100 µM |  | 14.1 µM |  |  | > 100 µM | 3.54 µM | 7.4 µM | > 100 |  |  |  |  |  | 25.8 |  |  |  |  | 
8 | O=C1OCC2=C1C(c1cccc(C(F)(F)F)c1)c1cc3c(cc1N2CCO)OCCO3 (configuration not stated) | > 33.3 µM | 2.44 µM | > 33.3 µM | > 33.3 µM | > 33.3 µM | > 33.3 µM | > 33.3 µM | 3.11 µM |  | 2.21 µM | 0.875 µM | 2.83 | 1.33 | 1.22 | > 33.3 | 1.11 | 1.5 | 1.24 µM | 0.849 | 
9 | COc1ccc(Br)c(CN2CCc3ccccc32)c1OS(=O)(=O)c1ccc(C)cc1 | > 100 µM | > 100 µM | > 100 µM | > 100 µM | 75.9 µM | > 100 µM |  | 57.8 µM |  |  |  |  |  |  |  |  |  |  |  | 
10 | O=C1OC(=O)C23CSCC12C1C=CC3O1 (configuration not stated) | > 100 µM | > 100 µM | > 100 µM | > 100 µM | > 100 µM | > 100 µM | > 100 µM | > 100 µM |  |  |  |  |  |  |  |  |  |  |  | 
11 | CC12OC(C(=O)C13CC3)C1C(=O)c3c(O)ccc(O)c3C(=O)C12 (configuration not stated) |  |  | 15.2 µM |  |  | 48.3 µM | > 100 µM | 49.9 µM | 36.5 |  |  | 3.54 | 12.1 | 31.5 | 66.8 | 20.1 |  |  | 19.4 | 18.4
12 | COc1ccc(N2C(=O)[C@@H](N=[N+]=[N-])[C@@H]2[C@H]2COC(C)(C)O2)cc1 | > 100 µM | > 100 µM | > 100 µM | > 100 µM | > 100 µM | > 100 µM | > 100 µM | > 100 µM |  |  |  |  |  |  |  |  |  |  |  | 
13 | CS(=O)(=O)c1ccc(COP(N)(=O)N(CCCl)CCCl)cc1 (configuration not stated) | > 100 µM |  | > 100 µM | > 100 µM | > 100 µM |  | > 100 µM | > 100 µM |  |  |  |  |  |  |  |  |  |  |  | 
14 | COc1cc(Cc2c(C)cc(OC)c3[nH]c4ccccc4c23)cc2c1[nH]c1ccccc12 | 22.8 µM | > 25 µM | > 25 µM | > 25 µM | 12.3 µM |  | 12.1 µM | 9.23 µM |  | 6.4 µM | 7.95 µM | 4.67 |  | 5.13 |  |  | 8.59 |  | 4.61 | 
15 | CCC(C)(O)c1cn(-c2ccc(Cl)cc2)nn1 (configuration not stated) | > 100 µM | > 100 µM | > 100 µM | > 100 µM | > 100 µM | > 100 µM | > 100 µM | > 100 µM |  |  |  |  |  |  |  |  |  |  |  | 
16 | CCCCNS(=O)(=O)c1ccc(-c2ccc3c(c2)-c2ccc(S(=O)(=O)NCCCC)cc2S3(=O)=O)cc1 |  | > 100 µM | > 100 µM | > 100 µM | 76.2 µM | > 100 µM | > 100 µM | 27.4 µM |  |  |  |  |  |  |  |  |  |  |  | 
17 | CC(=O)OCC1OC(n2c(=O)[nH]c(=O)c3n[nH]nc32)C(OC(C)=O)C(OC(C)=O)C1OC(C)=O (configuration not stated) | > 100 µM | > 100 µM | > 100 µM | > 100 µM |  | > 100 µM | > 100 µM |  |  |  |  |  |  |  |  |  |  |  |  | 

Row | Compound | TGI [1] | TGI [2] | TGI [3] | TGI [4] | TGI [5] | TGI [6] | TGI [7] | TGI [8] | TGI [9] [µM] | GI50 [1] | GI50 [2] | GI50 [3] [µM] | GI50 [6] [µM] | GI50 [7] [µM] | TGI [10] [µM] | GI50 [10] [µM] | GI50 [4] [µM] | GI50 [5] | GI50 [8] [µM] | GI50 [9] [µM]
18 | Cc1cc(=O)[nH]c(NNC(C#N)c2ccccc2O)n1 (configuration not stated) | > 100 µM | 50.5 µM | 90.8 µM | > 100 µM | > 100 µM |  | > 100 µM | > 100 µM |  |  |  |  |  |  |  |  |  |  |  | 
19 | CCCCCCC(=O)C/C(CCC(=O)N(Cc1ccccc1)Cc1ccccc1)=N\NC(N)=O | > 100 µM | > 100 µM | > 100 µM | > 100 µM | > 100 µM | > 100 µM | > 100 µM | > 100 µM |  |  |  |  |  |  |  |  |  |  |  | 
20 | CCOC(=O)[C@@]12C(C)=CC(=O)O[C@]1(C)C1C(=O)NC(=O)C12 (some centres not stated) |  | > 100 µM | > 100 µM | > 100 µM | > 100 µM | > 100 µM | > 100 µM | > 100 µM |  |  |  |  |  |  |  |  |  |  |  | 
21 | C=CCC12CC(=O)CCC1c1ccc(OC)cc1C2=O (configuration not stated) | > 100 µM | > 100 µM | > 100 µM | > 100 µM | > 100 µM | > 100 µM | > 100 µM | > 100 µM |  |  |  |  |  |  |  |  |  |  |  | 
22 | O=c1cc[nH]cc1-c1c[nH]ccc1=O | > 100 µM | > 100 µM | > 100 µM | > 100 µM | > 100 µM | > 100 µM | > 100 µM | > 100 µM |  |  |  |  |  |  |  |  |  |  |  | 
23 | Cc1ccc(N2C(=O)/C(=C/c3ccc(N(CCC#N)CCC#N)cc3)N=C2COc2ccc(Cl)cc2Cl)cc1 | > 100 µM | > 100 µM | > 100 µM | > 100 µM | > 100 µM | > 100 µM | > 100 µM | > 100 µM |  |  |  |  |  |  |  |  |  |  |  | 
24 | COC(=O)c1onc(C2OC(C)(C)OC2C(O)COC(c2ccccc2)(c2ccccc2)c2ccccc2)c1C(=O)OC (configuration not stated) | > 100 µM | > 100 µM | > 100 µM | > 100 µM | > 100 µM | > 100 µM |  | > 100 µM | > 100 |  |  |  |  |  |  |  |  |  |  | 
25 | CCCCCCCC(=O)[O-].CCCCCCCC(=O)[O-].N.N.N.N.[Co+3].[O-][Cl+3]([O-])([O-])[O-] | > 100 µM | > 100 µM | > 100 µM | > 100 µM |  | > 100 µM |  | > 100 µM |  | > 100 µM | > 100 µM | > 100 | > 100 |  |  |  | > 100 |  | > 100 | 
26 | CCOC(=O)c1sc2c(C(=O)OCC)n3cc(C)cc(C)c3c2c1O | > 100 µM |  | > 100 µM | > 100 µM | > 100 µM | 90 µM | > 100 µM | > 100 µM |  |  |  |  |  |  |  |  |  |  |  | 
27 | O=C1C(Cl)=C(Cl)C(=O)N1c1ccc(Cl)c(Cl)c1Cl | > 100 µM | 46.2 µM | > 100 µM | 45.6 µM | > 100 µM | > 100 µM | > 100 µM | > 100 µM |  |  |  |  |  |  |  |  |  |  |  | 
28 | COc1cc2c(cc1OC)C(C(CBr)CBr)N(C1CCCC1)CC2 (configuration not stated) |  | > 100 µM | > 100 µM | > 100 µM | > 100 µM | > 100 µM | > 100 µM | > 100 µM |  |  |  |  |  |  |  |  |  |  |  | 
29 | CC(C)N(C(=O)C12C3C4C5(C(=O)O)C(C1C35I)C42C(=O)O)C(C)C (configuration not stated) | > 100 µM | > 100 µM | > 100 µM | > 100 µM | > 100 µM | > 100 µM | > 100 µM | > 100 µM |  |  |  |  |  |  |  |  |  |  |  | 
30 | CC(C)(C)c1ccc(C2CC(=O)C3=C(C2)Nc2ccccc2N(C(=O)c2ccccc2Cl)C3c2ccc(F)cc2)cc1 (configuration not stated) | > 100 µM |  | > 100 µM | > 100 µM | > 100 µM |  | > 100 µM | > 100 µM | > 100 | > 100 µM |  | > 100 |  | > 100 | > 100 | > 100 | > 100 | > 100 µM | > 100 | > 100
31 | Cc1ccc(SSCC(O)C(O)CSSc2ccc(C)cc2)cc1 (configuration not stated) | 17.3 µM and 23.2 µM | 3.1 µM and 25.6 µM | 23.6 µM and 29.3 µM | 4.08 µM | 18.4 µM and 27 µM | 36 µM and 36.1 µM | 32.2 µM and 36.3 µM | 8.17 µM and 14.3 µM |  | 4.74 µM and 10.5 µM | 1.01 µM and 4.6 µM |  |  |  |  |  |  | 6.31 µM and 13.9 µM |  | 
32 | CCCC(O)c1cn(-c2cccc(S(=O)(=O)O)c2)nn1 (configuration not stated) | > 100 µM | > 100 µM | > 100 µM | > 100 µM | > 100 µM | > 100 µM | > 100 µM | > 100 µM |  |  |  |  |  |  |  |  |  |  |  | 
33 | COc1ccc(-c2cc3ccccc3[nH]c2=O)cc1OC | > 100 µM | > 100 µM | > 100 µM | > 100 µM |  | > 100 µM | > 100 µM | > 100 µM |  |  |  |  |  |  |  |  |  |  |  | 
